Laboratory results as given in PubChem BioAssay AID686967 (The Scripps Research Institute Molecular Screening Center, 2013).
The source made the active and inactive calls. No rule for the calls is given here.

Each compound was assayed against methionyl-tRNA synthetase (Trypanosoma brucei brucei) (assay: T. brucei MetRS inhibitors, late-stage follow-up, biochemical, luminescence, dose response (AID 686967)). Conditions: recombinant T. brucei MetRS, luminescence (ATP depletion).

| SMILES | IC50 |
| --- | --- |
| CCO[C@@H]1OC(C(=O)NCc2nc3ccccc3[nH]2)=C[C@H](c2ccc(Br)cc2)[C@H]1CCCO | inactive |
| Cc1ccc(NC(=O)CN(C)C(=O)CCSc2ccc(F)cc2)cc1 | 3470 nM |
| O=C(NCc1nc2ccccc2[nH]1)C1=C[C@H](c2ccccc2)C[C@H](OCc2ccc(CO)cc2)O1 | 6860 nM |
| CC(=O)c1c[nH]c(C(=O)NCc2cccc(C(F)(F)F)c2)c1 | 1040 nM |
| COc1ccccc1NS(=O)(=O)c1cccc(NC(=O)Nc2ccccc2)c1 | 600 nM |
| CC(C)OCCCN1CC(=O)N2C(c3cccc([N+](=O)[O-])c3)c3[nH]c4ccccc4c3C[C@H]2C1=O (some centres undefined) | 641 nM |
| CC(C)(C)[C@H]1C=C(C(=O)NCc2nc3ccccc3[nH]2)O[C@@H](OCc2ccc(CO)cc2)C1 | 2830 nM |
| O=C(NCc1nc2ccccc2[nH]1)C1=C[C@@H](c2ccccc2)C[C@@H](OCc2ccc(CO)cc2)O1 | 1580 nM |
| CN1CC(=O)N2C(c3cccc([N+](=O)[O-])c3)c3[nH]c4ccccc4c3C[C@H]2C1=O (some centres undefined) | 338 nM |
| CCOC(=O)N1CCC(Nc2c(Nc3ccc(F)cc3)c(=O)c2=O)CC1 | 6350 nM |
| CC(=O)c1ccc(N2CCN(C(=O)CCCn3c(=O)[nH]c4ccc(Br)cc4c3=O)CC2)cc1 | 577 nM |
| Cc1[nH]c2ccc(Br)cc2c(=O)c1CN1CCCCCC1 | 4200 nM |
| O=C1CC(SCc2nc3ccccc3[nH]2)C(=O)N1c1cccc(Cl)c1 (centres undefined) | inactive |
| O=C(CC(=O)Nc1cccc(Cl)c1)NN=Cc1ccccc1 | 3070 nM |
| CCCCCCCCCC1NC(C(=O)O)Cc2c1[nH]c1ccccc21 (centres undefined) | 4110 nM |
| O=C(CCC(=O)Nc1cccc([N+](=O)[O-])c1)NN=Cc1cccs1 | 3560 nM |
| Oc1c(Cl)cc(Cl)cc1CNc1nc2ccccc2[nH]1 | 429 nM |
| COc1ccc(OCC(O)CNC(=O)Nc2ccc(Cl)cc2)cc1 (centres undefined) | 5540 nM |
| CC(C)(C)[C@@H]1C=C(C(=O)NCc2nc3ccccc3[nH]2)O[C@H](OCc2ccc(CO)cc2)C1 | 3390 nM |
| O=C(NCc1nc2ccccc2[nH]1)C1=C[C@H](C2CC2)C[C@H](OCc2ccc(CO)cc2)O1 | 6500 nM |
| O=C(NCc1nc2ccccc2[nH]1)C1=C[C@H](c2csc3ccccc23)C[C@H](OCCCCO)O1 | 739 nM |
| O=C(CN1CCSC1=NCc1ccccc1)c1ccc(Cl)c(Cl)c1 | 2220 nM |
| CCO[C@H]1OC(C(=O)NCc2nc3ccccc3[nH]2)=C[C@@H](c2ccc(Br)cc2)[C@@H]1CCCO | 6240 nM |
| O=C(NNC(=O)c1ccc(-n2cncn2)c([N+](=O)[O-])c1)c1ccc(Cl)cc1 | 2850 nM |
| O=C(NCCc1nc2ccccc2[nH]1)c1ccc(Cl)c([N+](=O)[O-])c1 | 148 nM |
| C[C@H](O)[C@@H]1C(=O)N2CCc3c([nH]c4ccccc34)[C@@H]2C[C@@H]1N(C)Cc1ccc2c(c1)OCO2 | 297 nM |
| O=C(Cn1cnc2ccccc21)Nc1cccc([N+](=O)[O-])c1 | 1300 nM |

| SMILES | IC50 |
| --- | --- |
| O=C(NCc1nc2ccccc2[nH]1)C1=C[C@H](c2ccc3c(c2)OCO3)C[C@H](OCCCCO)O1 | 3040 nM |
| COc1ccc2[nH]c3nc(SCC(=O)Nc4ccc5c(c4)OCO5)nnc3c2c1 | 603 nM |
| CN(CC(=O)Nc1ccc(Cl)cc1)C(=O)c1ccc(-n2cncn2)c([N+](=O)[O-])c1 | 845 nM |
| Clc1ccc(-c2nnc(SCc3nc4ccccc4[nH]3)o2)c(Cl)c1 | 604 nM |
| O=C(Cn1cc(C(=O)C(=O)N2CCOCC2)c2ccccc21)Nc1cccc(C(F)(F)F)c1 | 172 nM |
| O=C(Nc1ccc(F)c(Cl)c1)C1CC(=O)n2c(nc3ccccc32)N1 (centres undefined) | 1590 nM |
| COc1ccccc1-n1c(SCC(=O)Nc2ccc(Cl)cc2)nc(O)c(Cc2ccccc2)c1=O | 3810 nM |
| O=C(CC=NOCc1ccc([N+](=O)[O-])cc1)Nc1ccc(Br)cc1 | 1430 nM |
| O=C(N/C(=C\c1cccnc1)c1nc2ccccc2[nH]1)c1cccc(Br)c1 | 3200 nM |
| O=C(NCc1nc2ccccc2[nH]1)C1=C[C@H](c2ccc(Br)cc2)C[C@H](OCc2ccc(CO)cc2)O1 | 2400 nM |
| O=C1[C@@H]2Cc3c([nH]c4ccccc34)C(c3cccc([N+](=O)[O-])c3)N2C(=O)CN1CCCO (some centres undefined) | 474 nM |
| O=C1CC(N(CCc2ccccc2)C(=S)Nc2ccccc2)C(=O)N1c1ccc(Br)cc1 (centres undefined) | 438 nM |
| COc1cccc(NC(=O)CSc2nnc3c(n2)[nH]c2ccc(C)cc23)c1 | 44.1 nM |
| COc1ccc(CNC(=O)CSc2nnc3c(n2)[nH]c2ccc(F)cc23)cc1 | 755 nM |
| O=C(CC=NOCc1ccc([N+](=O)[O-])cc1)Nc1ccc(Cl)cc1 | 1080 nM |
| Brc1cnc2nc(SCc3nc4ccccc4[nH]3)[nH]c2c1 | 2410 nM |
| CC(CC(=O)Nc1cccc(Br)c1)=NNC(=O)c1ccc(O)cc1O | 949 nM |
| O=C(NCc1nc2ccccc2[nH]1)C1=C[C@@H](C2CC2)C[C@@H](OCc2ccc(CO)cc2)O1 | 1500 nM |
| O=C(NCc1nc2ccccc2[nH]1)C1=C[C@@H](c2ccc(Br)cc2)C[C@@H](OCc2ccc(CO)cc2)O1 | 1060 nM |
| O=C(NCc1nc2ccccc2[nH]1)C1=C[C@@H](c2csc3ccccc23)C[C@@H](OCCCCO)O1 | 2330 nM |
| O=C(NCc1nc2ccccc2[nH]1)C1=C[C@H](c2ccc(Br)cc2)C[C@H](OCCCCO)O1 | 1580 nM |
| Clc1ccc(OCCSCc2nc3ccccc3[nH]2)cc1 | 7540 nM |
| O=C(NCc1nc2ccccc2[nH]1)C1=C[C@@H](c2ccc3c(c2)OCO3)C[C@@H](OCCCCO)O1 | 1100 nM |
| O=C(C[C@H]1C(=O)N(Cc2ccccc2)C[C@@H]1c1ccc(Br)cc1)Nc1ccc(Br)cc1 | 1950 nM |
| O=C(NCc1nc2ccccc2[nH]1)C1=C[C@@H](c2ccc(Br)cc2)C[C@@H](OCCCCO)O1 | 674 nM |
| O=C(NNC(=O)c1cc(-c2ccc(Cl)c(Cl)c2)nc2ccccc12)Nc1ccccc1 | 1200 nM |
| CN(Cc1cc(Cl)cc(Cl)c1)[C@H]1C[C@H]2c3[nH]c4ccccc4c3CCN2C(=O)[C@H]1CO | 586 nM |
